Key:
FLT3 kinase = biological target: T1, FLT3 kinase (Homo sapiens, UniProt P36888); test: Competition binding assay, FLT3 Kd
T1 construct: made in house; host or cells: T7 phage display or HEK-293 cells
T1 sequence (P36888 27-993): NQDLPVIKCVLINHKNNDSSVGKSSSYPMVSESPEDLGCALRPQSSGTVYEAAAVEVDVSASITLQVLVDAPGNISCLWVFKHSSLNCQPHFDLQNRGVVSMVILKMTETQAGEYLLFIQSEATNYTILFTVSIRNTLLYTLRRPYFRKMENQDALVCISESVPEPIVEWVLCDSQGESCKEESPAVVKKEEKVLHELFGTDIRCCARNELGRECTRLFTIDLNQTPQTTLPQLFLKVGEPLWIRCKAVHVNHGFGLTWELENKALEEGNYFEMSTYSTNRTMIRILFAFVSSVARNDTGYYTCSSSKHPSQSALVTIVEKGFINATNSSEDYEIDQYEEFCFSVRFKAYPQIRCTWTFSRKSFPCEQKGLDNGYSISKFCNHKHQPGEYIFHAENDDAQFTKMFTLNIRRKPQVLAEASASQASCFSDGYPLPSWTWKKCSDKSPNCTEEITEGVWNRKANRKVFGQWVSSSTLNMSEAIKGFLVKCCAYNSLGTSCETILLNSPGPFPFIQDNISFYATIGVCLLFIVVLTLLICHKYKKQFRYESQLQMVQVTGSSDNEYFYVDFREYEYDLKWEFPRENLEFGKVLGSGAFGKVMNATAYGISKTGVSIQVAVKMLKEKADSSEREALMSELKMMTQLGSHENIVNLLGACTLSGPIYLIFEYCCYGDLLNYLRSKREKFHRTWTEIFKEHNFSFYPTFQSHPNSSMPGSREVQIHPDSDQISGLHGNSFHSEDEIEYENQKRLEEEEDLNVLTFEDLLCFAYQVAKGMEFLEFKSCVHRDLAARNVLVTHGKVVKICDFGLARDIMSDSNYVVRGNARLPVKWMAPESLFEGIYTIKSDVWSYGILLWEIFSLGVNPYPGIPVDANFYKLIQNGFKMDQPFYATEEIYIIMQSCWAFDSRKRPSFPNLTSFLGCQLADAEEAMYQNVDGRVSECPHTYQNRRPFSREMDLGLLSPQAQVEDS
How it was run: (§1)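 Kd values derived from an eleven-point, threefold compound dilution series in a bead-based competition format: kinase (phage-fused or HEK-293-derived with DNA tag), ligand-coated streptavidin beads and compound equilibrated 1 h at room temperature. After washing, retained kinase was eluted with non-biotinylated ligand (0.5 μM) and measured by quantitative PCR.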

KIT kinase = biological target: T2, KIT kinase (Homo sapiens, UniProt P10721); test: Competition binding assay, KIT Kd
T2 construct: made in house; host or cells: T7 phage display or HEK-293 cells
How it was run: as §1

CSF-1R kinase = biological target: T3, CSF-1R kinase (Homo sapiens, UniProt P07333); test: Competition binding assay, CSF-1R Kd
T3 construct: made in house; host or cells: T7 phage display or HEK-293 cells
How it was run: as §1

MV4-11 cells = test: MV4-11 cell proliferation assay (Alamar Blue); type: cell-based; conditions: Homo sapiens, MV4-11, 72 h, 3 days incubation
How it was run: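 Viability readout: Alamar Blue fluorescence, ex 560/em 590 nm, 3 h after reagent addition, after 3-day exposure of 64,000 MV4-11 cells per well to a 9-point half-log compound series in 0.5% FBS Iscove's. IC50 from duplicate averages, as 50% proliferation inhibition relative to negative control.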

[1] = biological target: kinase panel containing either 359 or 386 distinct kinases; test: Selectivity score S10 from competition binding against a panel of kinases; conditions: compounds at 10 μM; for Kinase specificty: S(10)-359 panel: panel of 359 distinct kinases; for Kinase specificty: S(10)-386 panel: panel of 386 distinct kinases
How it was run: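 Compounds were tested at 10 μM in competition binding against T7 phage-fused or HEK-293-expressed DNA-tagged kinases with immobilized affinity ligands, 1 h at room temperature. Bound kinase was quantified by qPCR as percent of DMSO control; S10 is the fraction of distinct kinases (mutants excluded) with POC below 10.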

T2 sequence (P10721 26-976): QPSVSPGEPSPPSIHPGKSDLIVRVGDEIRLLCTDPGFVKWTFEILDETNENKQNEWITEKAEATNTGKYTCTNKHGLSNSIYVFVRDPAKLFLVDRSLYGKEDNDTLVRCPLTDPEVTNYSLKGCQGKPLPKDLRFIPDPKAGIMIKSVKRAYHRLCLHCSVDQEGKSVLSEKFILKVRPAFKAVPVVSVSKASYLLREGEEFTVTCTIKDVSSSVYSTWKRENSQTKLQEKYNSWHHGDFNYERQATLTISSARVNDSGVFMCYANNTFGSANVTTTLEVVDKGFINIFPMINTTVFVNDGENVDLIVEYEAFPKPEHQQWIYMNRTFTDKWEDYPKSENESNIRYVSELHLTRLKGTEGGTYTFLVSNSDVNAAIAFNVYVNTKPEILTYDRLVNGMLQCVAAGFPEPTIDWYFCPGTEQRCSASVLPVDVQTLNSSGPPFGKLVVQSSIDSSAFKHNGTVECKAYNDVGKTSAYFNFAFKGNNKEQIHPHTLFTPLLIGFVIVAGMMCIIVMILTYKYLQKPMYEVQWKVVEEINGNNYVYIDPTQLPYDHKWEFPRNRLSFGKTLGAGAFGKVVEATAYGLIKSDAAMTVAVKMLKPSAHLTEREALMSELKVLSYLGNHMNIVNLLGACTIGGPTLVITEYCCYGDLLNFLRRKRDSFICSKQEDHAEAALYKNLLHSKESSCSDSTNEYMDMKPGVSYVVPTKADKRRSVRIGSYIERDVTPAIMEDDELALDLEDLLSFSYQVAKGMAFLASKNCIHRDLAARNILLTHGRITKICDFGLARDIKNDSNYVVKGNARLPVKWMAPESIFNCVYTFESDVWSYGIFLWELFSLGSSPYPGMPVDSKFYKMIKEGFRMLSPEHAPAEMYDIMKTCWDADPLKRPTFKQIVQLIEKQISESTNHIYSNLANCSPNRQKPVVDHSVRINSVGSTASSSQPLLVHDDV
T3 sequence (P07333 20-972): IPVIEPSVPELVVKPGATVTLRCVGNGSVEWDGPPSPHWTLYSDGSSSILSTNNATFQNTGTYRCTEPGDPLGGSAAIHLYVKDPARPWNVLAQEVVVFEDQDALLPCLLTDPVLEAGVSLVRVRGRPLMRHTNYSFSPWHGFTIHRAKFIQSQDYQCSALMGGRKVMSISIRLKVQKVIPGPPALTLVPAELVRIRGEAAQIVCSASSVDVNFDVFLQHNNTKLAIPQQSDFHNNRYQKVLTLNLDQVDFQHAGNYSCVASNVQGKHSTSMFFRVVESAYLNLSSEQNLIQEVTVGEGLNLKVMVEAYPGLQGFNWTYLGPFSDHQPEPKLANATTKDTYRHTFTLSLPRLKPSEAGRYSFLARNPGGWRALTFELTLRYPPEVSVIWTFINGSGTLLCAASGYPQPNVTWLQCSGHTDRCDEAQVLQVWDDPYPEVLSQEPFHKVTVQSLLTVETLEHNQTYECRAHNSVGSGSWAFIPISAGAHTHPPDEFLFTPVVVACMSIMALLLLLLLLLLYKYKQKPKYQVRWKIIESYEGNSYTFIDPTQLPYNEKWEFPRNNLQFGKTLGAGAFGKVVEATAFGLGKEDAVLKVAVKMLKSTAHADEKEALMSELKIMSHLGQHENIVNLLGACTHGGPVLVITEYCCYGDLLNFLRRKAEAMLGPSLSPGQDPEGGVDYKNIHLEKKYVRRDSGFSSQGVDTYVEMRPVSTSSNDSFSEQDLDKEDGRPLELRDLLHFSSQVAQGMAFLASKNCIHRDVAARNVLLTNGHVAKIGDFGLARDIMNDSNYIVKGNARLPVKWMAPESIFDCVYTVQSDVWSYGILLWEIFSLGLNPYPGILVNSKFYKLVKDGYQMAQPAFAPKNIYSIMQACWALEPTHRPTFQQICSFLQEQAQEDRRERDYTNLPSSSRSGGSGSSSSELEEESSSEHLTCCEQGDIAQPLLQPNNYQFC

| SMILES | Kd (FLT3 kinase) [nM] | Kd (KIT kinase) [nM] | Kd (CSF-1R kinase) [nM] | IC50 (MV4-11 cells) [nM] | Kinase specificty: S(10)-359 panel [1] | Kinase specificty: S(10)-386 panel [1] |
| --- | --- | --- | --- | --- | --- | --- |
| CC(C)(C)Nc1ncc(-c2ccc(NC(=O)Nc3cc(C(C)(C)C)on3)nc2)cn1 [Example 62, 1-(5-(2-(tert-butylamino)pyrimidin-5-yl)pyridin-2-yl)-3-(5-tert-butylisoxazol-3-yl)urea] | 1 to 10 | 1 to 10 | 10 to 100 | 100 to 500 | A (A≦0.1) |  |
| CC(C)(C)c1cc(NC(=O)Nc2ccc(-c3cnc(NC4CCOCC4)nc3)cn2)no1 [Example 63, 1-(5-tert-butylisoxazol-3-yl)-3-(5-(2-(tetrahydro-2H-pyran-4-ylamino)pyrimidin-5-yl)pyridin-2-yl)urea] | ≤ 1 | ≤ 1 | ≤ 10 | 10 to 100 | B (0.1<B≦0.2 nM) |  |
| CC(C)(C)c1cc(NC(=O)Nc2ccc(-c3cnc(NC4CC4)nc3)cn2)no1 [Example 64, 1-(5-tert-butylisoxazol-3-yl)-3-[5-(2-cyclopropylaminopyrimidin-5-yl)-pyridin-2-yl]-urea] | ≤ 1 | ≤ 1 | ≤ 10 | 10 to 100 | B (0.1<B≦0.2 nM) |  |
| CC(C)Nc1ncc(-c2ccc(NC(=O)Nc3cc(C(C)(C)C)on3)nc2)cn1 [Example 65, 1-(5-tert-butylisoxazol-3-yl)-3-(5-(2-(isopropylamino)pyrimidin-5-yl)pyridin-2-yl)urea] | ≤ 1 | ≤ 1 | ≤ 10 | 10 to 100 | B (0.1<B≦0.2 nM) |  |
| O=C(Cc1cccc(C(F)(F)F)c1)Nc1ccc(-c2cnc(NC3CC3)nc2)cn1 [Example 66, N-(5-(2-(cyclopropylamino)pyrimidin-5-yl)pyridine-2-yl)-2-(3-(trifluoromethyl)phenyl)acetamide] | 1 to 10 | ≤ 1 | ≤ 10 | 100 to 500 | A (A≦0.1) |  |
| CC(C)Nc1ncc(-c2ccc(NC(=O)Cc3cccc(C(F)(F)F)c3)nc2)cn1 [Example 67, N-(5-(2-(isopropylamino)pyrimidin-5-yl)pyridin-2-yl)-2-(3-(trifluoromethyl)phenyl)acetamide] | 1 to 10 | ≤ 1 | 10 to 100 | 10 to 100 | A (A≦0.1) |  |
| Nc1ccc(-c2ccc(CC(=O)Nc3cc(C4(C(F)(F)F)CC4)on3)cc2)cn1 [Example 73, 2-(4-(6-aminopyridin-3-yl)phenyl)-N-(5-(1-(trifluoromethyl)cyclopropyl)isoxazol-3-yl)acetamide] | ≤ 1 | 1 to 10 | ≤ 10 | ≤ 1 |  | A (A≦0.1) |
| CC(C)(C)c1cc(NC(=O)Cc2ccc(-c3ccc(N)nc3)cc2F)no1 [Example 78, 2-(4-(6-aminopyridin-3-yl)-2-fluorophenyl)-N-(5-tert-butylisoxazol-3-yl)acetamide] | ≤ 1 | 1 to 10 | ≤ 10 | ≤ 1 |  | B (0.1<B≦0.2 nM) |
| CC(C)(C)c1cc(NC(=O)Cc2ccc(-c3ccc(NCCS(C)(=O)=O)nc3)cc2)no1.CS(=O)(=O)O [Example 92, 5-(4-(2-(5-tert-butylisoxazol-3-ylamino)-2-oxoethyl)phenyl)-N-(2-(methylsulfonyl)ethyl)pyridin-2-aminium methanesulfonate] | ≤ 1 | 1 to 10 | ≤ 10 | 1 to 10 |  | B (0.1<B≦0.2 nM) |
| CC(C)(C)c1cc(NC(=O)Cc2ccc(-c3cnc(N)c(F)c3)cc2)no1.CS(=O)(=O)O [Example 94, 5-(4-(2-(5-tert-butylisoxazol-3-ylamino)-2-oxoethyl)phenyl)-3-fluoropyridin-2-aminium methanesulfonate] | 1 to 10 | 1 to 10 | ≤ 10 | ≤ 1 |  | B (0.1<B≦0.2 nM) |
| CC(C)(C)c1cc(NC(=O)Cc2ccc(-c3ccc(N)nc3F)cc2)no1.CS(=O)(=O)O [Example 95, 5-(4-(2-(5-tert-butylisoxazol-3-ylamino)-2-oxoethyl)phenyl)-6-fluoropyridin-2-aminium methanesulfonate] | ≤ 1 | 1 to 10 | ≤ 10 | ≤ 1 |  | A (A≦0.1) |
| CC(C)(C)c1cc(NC(=O)Cc2ccc(-c3ccc(NCCN4CCOCC4)nc3)cc2)on1.CS(=O)(=O)O [Example 96, 5-(4-(2-(3-tert-butylisoxazol-5-ylamino)-2-oxoethyl)phenyl)-N-(2-morpholinoethyl)pyridin-2-aminium methanesulfonate] | ≤ 1 | ≤ 1 | ≤ 10 | 1 to 10 |  | B (0.1<B≦0.2 nM) |
| CC(C)(CF)c1cc(NC(=O)Nc2ccc(-c3ccc(N)nc3)cc2)on1 [Example 97, 1-(4-(6-aminopyridin-3-yl)phenyl)-3-(3-(1-fluoro-2-methylpropan-2-yl)isoxazol-5-yl)urea] | 1 to 10 | 1 to 10 | ≤ 10 | 1 to 10 |  | A (A≦0.1) |
| CC1(c2cc(NC(=O)Nc3ccc(-c4ccc(N)nc4)cc3)no2)COC1.CS(=O)(=O)O [Example 98, 5-(4-(3-(5-(3-methyloxetan-3-yl)isoxazol-3-yl)ureido)phenyl)pyridin-2-aminium methanesulfonate] | 1 to 10 | 1 to 10 | ≤ 10 | 10 to 100 |  | A (A≦0.1) |
| CC1(c2cc(NC(=O)Cc3ccc(-c4ccc(N)nc4)cc3)no2)COC1.CS(=O)(=O)O [Example 99, 5-(4-(2-((5-(3-methyloxetan-3-yl)isoxazol-3-yl)amino)-2-oxoethyl)phenyl)pyridin-2-aminium methanesulfonate] | ≤ 1 | 1 to 10 | ≤ 10 | 1 to 10 |  | A (A≦0.1) |
| CC1(c2cc(NC(=O)Cc3ccc(-c4ccc(N)nc4)cc3)no2)CC1.CS(=O)(=O)O [Example 100, 5-(4-(2-(5-(1-methylcyclopropyl)isoxazol-3-ylamino)-2-oxoethyl)phenyl)pyridin-2-aminium methanesulfonate] | ≤ 1 | ≤ 1 | ≤ 10 | 1 to 10 |  | A (A≦0.1) |
| CC(C)(F)c1cc(NC(=O)Cc2ccc(-c3ccc(N)nc3)cc2)on1.CS(=O)(=O)O [Example 101, 5-(4-(2-(3-(2-fluoropropan-2-yl)isoxazol-5-ylamino)-2-oxoethyl)phenyl)pyridin-2-aminium methanesulfonate] | ≤ 1 | ≤ 1 | ≤ 10 | 1 to 10 |  | A (A≦0.1) |
| CC(=O)O.CC1(c2cc(NC(=O)Cc3ccc(-c4ccc(N)nc4)cc3)no2)CC1(F)F (centres unmarked) [Example 102, 5-(4-(2-((5-(2,2-difluoro-1-methylcyclopropyl)isoxazol-3-yl)amino)-2-oxoethyl)phenyl)pyridin-2-aminium acetate] | ≤ 1 | 1 to 10 | ≤ 10 | ≤ 1 |  | B (0.1<B≦0.2 nM) |
| CC(=O)O.Nc1ccc(-c2ccc(CC(=O)Nc3cc(C4(CF)CC4)on3)cc2)cn1 [Example 103, 5-(4-(2-((5-(1-(fluoromethyl)cyclopropyl)isoxazol-3-yl)amino)-2-oxoethyl)phenyl)pyridin-2-aminium acetate] | ≤ 1 | ≤ 1 | ≤ 10 | ≤ 1 |  | A (A≦0.1) |

Reference: patent US20130035326A1 (AMBIT BIOSCIENCES CORPORATION, priority 2009, published 2013)
